The source of these data is PubChem BioAssay AID330 (DTP/NCI, 2004).

“And” between values parts separate entries of the source, which are not always exact repeats. Equal values may be shown once. Inconclusive results and toxic doses are left out. Peptide text beside a SMILES is read from it. * marks the point of attachment. Cbz = O=C(OCc1ccccc1)*

The subject of the experiment is P388 leukemia ip, CD2F1 mice, survival T/C. Kind of experiment: NCI In Vivo Anticancer Drug Screen. Data for tumor model P388 Leukemia (intraperitoneal) in CD2F1 (CDF1) mice. The following applies: endpoint: median survival time, higher = longer survival. A digest of the protocol:
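Mice carrying the transplanted tumor received test compound or vehicle. Survival was recorded in each group, and the value is the treated-group measurement divided by that of the vehicle-treated control group.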

Where [1] appears, read: dose: 50.0 mg/kg/injection, schedule: Q01DX005 (ip), vehicle: Klucel (hydroxypropylcellulose) (HPC).
The mark [2] stands for this setting: dose: 50.0 mg/kg/injection, schedule: Q01DX009 (ip), vehicle: saline with Tween-80.
Setting [3] is: dose: 100.0 mg/kg/injection, schedule: Q01DX009 (ip), vehicle: saline with Tween-80.
The mark [4] stands for this setting: dose: 200.0 mg/kg/injection, schedule: Q01DX009 (ip), vehicle: saline with Tween-80.
Setting [5] is: dose: 60.0 mg/kg/injection, schedule: Q01DX005 (ip), vehicle: saline with Tween-80.
The mark [6] stands for this setting: dose: 120.0 mg/kg/injection, schedule: Q01DX005 (ip), vehicle: saline with Tween-80.
The mark [7] stands for this setting: dose: 240.0 mg/kg/injection, schedule: Q01DX005 (ip), vehicle: saline with Tween-80.
Setting [8] is: dose: 100.0 mg/kg/injection, schedule: Q01DX001 (ip), vehicle: Klucel (hydroxypropylcellulose) (HPC).
[9] abbreviates: dose: 200.0 mg/kg/injection, schedule: Q01DX001 (ip), vehicle: Klucel (hydroxypropylcellulose) (HPC).
[10] abbreviates: dose: 50.0 mg/kg/injection, schedule: Q01DX009 (ip), vehicle: other.
[11] abbreviates: dose: 100.0 mg/kg/injection, schedule: Q01DX009 (ip), vehicle: other.
Setting [12] is: dose: 200.0 mg/kg/injection, schedule: Q01DX009 (ip), vehicle: other.
The mark [13] stands for this setting: dose: 25.0 mg/kg/injection, schedule: Q01DX005 (ip), vehicle: saline with Tween-80.
Setting [14] is: dose: 50.0 mg/kg/injection, schedule: Q01DX005 (ip), vehicle: saline with Tween-80.
[15] abbreviates: dose: 100.0 mg/kg/injection, schedule: Q01DX005 (ip), vehicle: saline with Tween-80.
[16] abbreviates: dose: 100.0 mg/kg/injection, schedule: Q01DX001 (ip), vehicle: saline with Tween-80.
Where [17] appears, read: dose: 200.0 mg/kg/injection, schedule: Q01DX001 (ip), vehicle: saline with Tween-80.
Setting [18] is: dose: 400.0 mg/kg/injection, schedule: Q01DX001 (ip), vehicle: saline with Tween-80.
The mark [19] stands for this setting: dose: 200.0 mg/kg/injection, schedule: Q01DX005 (ip), vehicle: saline with Tween-80.
[20] abbreviates: dose: 400.0 mg/kg/injection, schedule: Q01DX001 (ip), vehicle: Klucel (hydroxypropylcellulose) (HPC).

Take `CN(C)CC/C=C1\c2ccccc2Sc2ccc(Cl)cc21`: the T/C is 107 % of control and 112 % of control (dose: 12.5 mg/kg/injection, schedule: Q01DX005 (ip), vehicle: Klucel (hydroxypropylcellulose) (HPC)); 117 % of control and 120 % of control (dose: 25.0 mg/kg/injection, schedule: Q01DX005 (ip), vehicle: Klucel (hydroxypropylcellulose) (HPC)); 117 % of control under setting [1].
For the molecule `CC(C)(C)OC(=O)NC(CO)C(=O)O` (centres undefined), the T/C runs as follows: under setting [2], 96 % of control; under setting [3], 96 % of control; under setting [4], 99 % of control.
On to `CCOc1cc2c(Cl)ncnc2c(OCC)c1OCC`, for which the T/C runs as follows: under setting [2], 105 % of control; under setting [3], 91 % of control; under setting [4], 106 % of control.
Take `COc1ccc(C2C3=C(CCCC3=O)Oc3cc4c(cc32)OCO4)c(OC)c1` (centres undefined): the T/C runs as follows: under setting [5], 99 % of control; under setting [6], 90 % of control; under setting [7], 90 % of control.
Consider `Cc1ccc2c(c1)C(=O)N(CC[P+](c1ccccc1)(c1ccccc1)c1ccccc1)C2=O`, for which the T/C (dose: 0.78 mg/kg/injection, schedule: Q01DX009 (ip), vehicle: water) was 100 % of control and 113 % of control; the T/C (dose: 1.56 mg/kg/injection, schedule: Q01DX009 (ip), vehicle: water) was 117 % of control and 120 % of control; the T/C (dose: 3.13 mg/kg/injection, schedule: Q01DX009 (ip), vehicle: water) was 121 % of control; the T/C (dose: 12.5 mg/kg/injection, schedule: Q01DX009 (ip), vehicle: water) was 118 % of control.
Turning to `O=[N+]([O-])C1(Cl)CCC(Cl)([N+](=O)[O-])CC1` (centres undefined), the T/C under setting [8] is 100 % of control and the T/C under setting [9] was 104 % of control.
Consider `CCOC(=O)C(CC(=O)O)Cc1cccc(OC)c1OC` (centres undefined), for which the T/C is, setting by setting: (dose: 25.0 mg/kg/injection, schedule: Q01DX009 (ip), vehicle: other) 101 % of control; under setting [10], 100 % of control; under setting [11], 111 % of control; under setting [12], 97 % of control; (dose: 400.0 mg/kg/injection, schedule: Q01DX009 (ip), vehicle: other) 93 % of control.
For `CS(=O)(=O)OCCN(CCOS(C)(=O)=O)c1ccc(N=Nc2ccccc2)cc1`, the T/C (dose: 12.5 mg/kg/injection, schedule: Q01DX009 (ip), vehicle: saline with Tween-80) is 156 % of control and 176 % of control; the T/C (dose: 25.0 mg/kg/injection, schedule: Q01DX009 (ip), vehicle: saline with Tween-80) is 160 % of control.
In the case of `CC(=O)C(c1ccccc1)S(=O)(=O)c1ccc(C)cc1` (centres undefined), the T/C runs as follows: under setting [13], 97 % of control; under setting [14], 94 % of control; under setting [15], 87 % of control.
Take `CN(C)P(=O)(N(C)C)N(C)CO`: the T/C runs as follows: (dose: 50.0 mg/kg/injection, schedule: Q01DX009 (ip), vehicle: saline) 98 % of control and 100 % of control; (dose: 100.0 mg/kg/injection, schedule: Q01DX009 (ip), vehicle: saline) 104 % of control and 110 % of control; (dose: 200.0 mg/kg/injection, schedule: Q01DX009 (ip), vehicle: saline) 121 % of control and 122 % of control; (dose: 400.0 mg/kg/injection, schedule: Q01DX009 (ip), vehicle: saline) 86 % of control.
With `COc1ccc(C2=C/C(=C/c3ccc(N(CCC#N)CCC#N)cc3)C(=O)O2)cc1`, the T/C by setting is: under setting [16], 97 % of control; under setting [17], 95 % of control; under setting [18], 92 % of control.
Take `COc1ccc(NCCc2ccc(-n3ncc(C(=O)NN)c3N)nn2)cc1OC`: the T/C is 93 % of control (dose: 75.0 mg/kg/injection, schedule: Q01DX005 (ip), vehicle: other); 93 % of control (dose: 150.0 mg/kg/injection, schedule: Q01DX005 (ip), vehicle: other); 100 % of control (dose: 250.0 mg/kg/injection, schedule: Q01DX005 (oral), vehicle: water); 107 % of control (dose: 500.0 mg/kg/injection, schedule: Q01DX005 (oral), vehicle: water); 110 % of control (dose: 1000.0 mg/kg/injection, schedule: Q01DX005 (oral), vehicle: water).
`CCOc1cc2c(cc1C/C=C/c1cc(OC)c(OC)c(OC)c1)OCO2`: the T/C (dose: 15.0 mg/kg/injection, schedule: Q01DX005 (ip), vehicle: saline with Tween-80) is 94 % of control; the T/C (dose: 30.0 mg/kg/injection, schedule: Q01DX005 (ip), vehicle: saline with Tween-80) was 95 % of control; the T/C under setting [5] is 95 % of control.
`CC1CC(C)N(C)C(C)C1` (centres undefined): the T/C is, setting by setting: (dose: 15.0 mg/kg/injection, schedule: Q01DX005 (ip), vehicle: saline) 103 % of control; (dose: 30.0 mg/kg/injection, schedule: Q01DX005 (ip), vehicle: saline) 99 % of control; (dose: 60.0 mg/kg/injection, schedule: Q01DX005 (ip), vehicle: saline) 104 % of control.
Consider `CCC(C)C(NC(=O)C(Cc1ccc(O)cc1)NC(=O)OCc1ccccc1)C(=O)OC` (stereo not drawn) (Cbz-Tyr-Ile-OMe; configuration not given here), for which the T/C reads like this: under setting [14], 106 % of control; under setting [15], 92 % of control; under setting [19], 97 % of control.
On to `O=C(CCc1cc2[nH]c1c(-c1ccccc1)c1nc(c(-c3ccccc3)c3ccc([nH]3)c(-c3ccccc3)c3nc(c2-c2ccccc2)C=C3)C=C1)OCCCc1cccnc1`, for which the T/C was 100 % of control (dose: 50.0 mg/kg/injection, schedule: Q01DX001 (ip), vehicle: Klucel (hydroxypropylcellulose) (HPC)); 105 % of control under setting [8]; 100 % of control under setting [9]; 91 % of control under setting [20].
As for `NC(N)=NS(=O)(=O)c1ccc(NCc2c3ccccc3nc3cc(Cl)ccc23)cc1`, the T/C is, setting by setting: under setting [5], 170 % of control; under setting [6], 121 % of control; under setting [7], 116 % of control.
Regarding `Cc1c(COC(=O)NC(C)C)c(COC(=O)NC(C)C)c2n1CCS2(=O)=O`, the T/C runs as follows: under setting [13], 92 % of control; under setting [14], 100 % of control; under setting [15], 92 % of control; under setting [19], 86 % of control and 91 % of control; (dose: 400.0 mg/kg/injection, schedule: Q01DX005 (ip), vehicle: saline with Tween-80) 91 % of control.
Turning to `CCOC(=O)C1CCCC(=O)C1Cc1cccc(OC)c1` (centres undefined), the T/C is 100 % of control under setting [10], 106 % of control under setting [11] and 100 % of control under setting [12].
For the molecule `CP1(=S)CC(Br)=C2CCCCC21` (centres undefined), the T/C reads like this: (dose: 100.0 mg/kg/injection, schedule: Q04DX003 (ip), vehicle: Klucel (hydroxypropylcellulose) (HPC)) 108 % of control; (dose: 200.0 mg/kg/injection, schedule: Q04DX003 (ip), vehicle: Klucel (hydroxypropylcellulose) (HPC)) 106 % of control; (dose: 400.0 mg/kg/injection, schedule: Q04DX003 (ip), vehicle: Klucel (hydroxypropylcellulose) (HPC)) 107 % of control.
In the case of `COc1cc(OC)c2c(=O)c3cccc([N+](=O)[O-])c3n(C)c2c1`, the T/C reads like this: under setting [16], 104 % of control; under setting [17], 100 % of control; under setting [18], 98 % of control.
As to `COc1cc2oc(=O)cc(C)c2cc1N=C=S`, the T/C (dose: 50.0 mg/kg/injection, schedule: Q04DX003 (ip), vehicle: suspension in saline) was 100 % of control; the T/C (dose: 100.0 mg/kg/injection, schedule: Q04DX003 (ip), vehicle: suspension in saline) is 100 % of control; the T/C (dose: 200.0 mg/kg/injection, schedule: Q04DX003 (ip), vehicle: suspension in saline) was 92 % of control.
Regarding `COc1ccccc1P(=O)(CCP(=O)(c1ccccc1)c1ccccc1OC)c1ccccc1` (centres undefined), the T/C by setting is: under setting [1], 103 % of control; (dose: 100.0 mg/kg/injection, schedule: Q01DX005 (ip), vehicle: Klucel (hydroxypropylcellulose) (HPC)) 97 % of control; (dose: 200.0 mg/kg/injection, schedule: Q01DX005 (ip), vehicle: Klucel (hydroxypropylcellulose) (HPC)) 91 % of control.
Consider `c1ccc(C2C(c3ccccn3)C(c3ccccn3)C2c2ccccn2)nc1` (centres undefined), for which the T/C under setting [8] is 95 % of control, the T/C under setting [9] is 94 % of control and the T/C under setting [20] was 95 % of control.
